target: T1, human α2C adrenergic receptor (Homo sapiens, UniProt P18825); test: Radioligand binding assay, [3H]rauwolscine competition
T1 construct: The entire coding region of α2C (1383 bp), including 2 bp of 5′ UT and 400 bp of 3′ UT; expressed in transfected cells
T1 sequence (P18825 1-462): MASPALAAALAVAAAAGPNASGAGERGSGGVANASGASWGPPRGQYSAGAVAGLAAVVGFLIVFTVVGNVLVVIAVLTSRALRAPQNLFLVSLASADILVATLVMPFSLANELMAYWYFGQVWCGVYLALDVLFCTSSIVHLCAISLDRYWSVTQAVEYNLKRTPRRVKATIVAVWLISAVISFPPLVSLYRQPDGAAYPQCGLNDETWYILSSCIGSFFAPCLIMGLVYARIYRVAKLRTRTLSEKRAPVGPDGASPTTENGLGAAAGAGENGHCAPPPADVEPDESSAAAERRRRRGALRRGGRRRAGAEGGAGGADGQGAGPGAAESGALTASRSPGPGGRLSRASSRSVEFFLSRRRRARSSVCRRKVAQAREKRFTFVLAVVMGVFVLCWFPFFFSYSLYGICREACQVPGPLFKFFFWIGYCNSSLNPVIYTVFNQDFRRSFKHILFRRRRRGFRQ

**Q.** With `Brc1cc(NC2=NCCN2)cc2cc[nH]c12` [Example 2, 7-Bromo-5-(2-imidazolin-2-ylamino)indole] as the compound, how does the Ki read?
**A.** 12.9 nM

**Q.** Which Ki does the source give for `CC(=O)c1cc(NC2=NCCN2)cc2cc[nH]c12` [Example 6, 7-Acetyl-5-(2-imidazolin-2-ylamino)indole] here?
**A.** 117 nM

**Q.** Which Ki does the source give for `c1nc2cc(NC3=NCCN3)ccc2s1` [Example 13, 5-(2-Imidazolin-2-ylamino)benzothiazole] here?
**A.** 20.4 nM

**Q.** Which Ki does the source give for `N#Cc1cc(NC2=NCCN2)cc2cc[nH]c12` [Example 5, 7-Cyano-5-(2-imidazolin-2-ylamino)indole] here?
**A.** 43.7 nM

Reference: patent US6723741B2, “Benzimidazoles and benzothiazoles and uses thereof” (Synaptic Pharmaceutical Corporation, priority 1996, dated 2004)
